Several values for one entry are separate records, joined by “and”; a condition that tells them apart may be missing. Equal entries are not always repeated. ± gives the expanded uncertainty stated by the source.
Test: activity coefficient (dimensionless); of the first substance listed, at infinite dilution; xn = mol fraction of the nth substance listed
Conditions: Liquid, x1 = 0

CCCCCO [pentan-1-ol] + O
Conditions | activity coefficient
273.35 K, headspace analysis | 121 ± 4
283.15 K, headspace analysis | 156 ± 5
293.15 K, headspace analysis | 184 ± 6
303.15 K, inert gas stripping | 203 ± 6
313.15 K, inert gas stripping | 221 ± 7
323.15 K, inert gas stripping | 230 ± 7
333.15 K, Rayleigh distillation | 221 ± 7
343.15 K, Rayleigh distillation | 206 ± 6
353.15 K, circulating still method | 203 ± 6
363.15 K, circulating still method | 181 ± 5
371.15 K, circulating still method | 169 ± 5

CCO [ethanol] + O
Conditions | activity coefficient
273.35 K, headspace analysis | 2.54 ± 0.08
283.15 K, headspace analysis | 3.13 ± 0.09
303.15 K, comparative tensimetry | 4.14 ± 0.12
308.15 K, comparative tensimetry | 4.43 ± 0.13
313.15 K, comparative tensimetry | 4.66 ± 0.14
318.15 K, comparative tensimetry | 4.85 ± 0.15
323.15 K, comparative tensimetry | 5.03 ± 0.15
328.15 K, comparative tensimetry | 5.2 ± 0.16
333.15 K, comparative tensimetry | 5.3 ± 0.16
358.15 K, circulating still method | 5.9 ± 0.2
363.15 K, circulating still method | 6 ± 0.2
368.15 K, circulating still method | 6.1 ± 0.2
372.15 K, circulating still method | 6.2 ± 0.2

CCCCO [butan-1-ol] + O
Conditions | activity coefficient
273.35 K, headspace analysis | 32.6 ± 1
283.15 K, headspace analysis | 40.4 ± 1.2
293.15 K, headspace analysis | 48.4 ± 1.5
303.15 K, comparative tensimetry | 53.4 ± 1.6
308.15 K, comparative tensimetry | 57.2 ± 1.7
313.15 K, comparative tensimetry | 58.9 ± 1.8
318.15 K, comparative tensimetry | 60.2 ± 1.8
323.15 K, comparative tensimetry | 61.5 ± 1.8
323.15 K, headspace analysis | 58.7 and 59.4
328.15 K, comparative tensimetry | 62.8 ± 1.9
333.15 K, comparative tensimetry | 63.4 ± 1.9
372.15 K, circulating still method | 56.1 ± 1.7

CCCO [propan-1-ol] + O
Conditions | activity coefficient
273.35 K, headspace analysis | 8.9 ± 0.3
283.15 K, headspace analysis | 11.2 ± 0.3
293.15 K, headspace analysis | 13.5 ± 0.4
303.15 K, comparative tensimetry | 15.3 ± 0.5
308.15 K, comparative tensimetry | 16.1 ± 0.5
313.15 K, comparative tensimetry | 16.7 ± 0.5
318.15 K, comparative tensimetry | 17.5 ± 0.5
323.15 K, comparative tensimetry | 18.1 ± 0.5
328.15 K, comparative tensimetry | 18.6 ± 0.6
333.15 K, comparative tensimetry | 19 ± 0.6
358.15 K, circulating still method | 20.1 ± 0.6
363.15 K, circulating still method | 19.5 ± 0.6
368.15 K, circulating still method | 18.7 ± 0.6
372.15 K, circulating still method | 18.9 ± 0.6

CO [methanol] + O
Conditions | activity coefficient
273.35 K, headspace analysis | 1.23 ± 0.04
283.15 K, headspace analysis | 1.4 ± 0.04
293.15 K, headspace analysis | 1.55 ± 0.05
303.15 K, comparative tensimetry | 1.71 ± 0.05
308.15 K, comparative tensimetry | 1.8 ± 0.05
313.15 K, comparative tensimetry | 1.88 ± 0.06
318.15 K, comparative tensimetry | 1.95 ± 0.06
323.15 K, comparative tensimetry | 2.02 ± 0.06
328.15 K, comparative tensimetry | 2.09 ± 0.06
333.15 K, comparative tensimetry | 2.16 ± 0.07
358.15 K, circulation still method | 2.31 ± 0.07
363.15 K, circulation still method | 2.38 ± 0.07
368.15 K, circulation still method | 2.41 ± 0.07
372.15 K, circulation still method | 2.4 ± 0.07

— the NIST ThermoML archive (doi:10.1016/j.fluid.2005.08.018)
